From patent US20230242473A1, “THYROMIMETICS” (Autobahn Therapeutics, Inc., priority 2020, published 2023)

Biological target: T1, recombinant human FAAH (rhFAAH) (Homo sapiens, UniProt O00519)
T1 construct: purchased Cayman Chemical (Ann Arbor, Mich., USA)
T1 sequence (O00519 1-579): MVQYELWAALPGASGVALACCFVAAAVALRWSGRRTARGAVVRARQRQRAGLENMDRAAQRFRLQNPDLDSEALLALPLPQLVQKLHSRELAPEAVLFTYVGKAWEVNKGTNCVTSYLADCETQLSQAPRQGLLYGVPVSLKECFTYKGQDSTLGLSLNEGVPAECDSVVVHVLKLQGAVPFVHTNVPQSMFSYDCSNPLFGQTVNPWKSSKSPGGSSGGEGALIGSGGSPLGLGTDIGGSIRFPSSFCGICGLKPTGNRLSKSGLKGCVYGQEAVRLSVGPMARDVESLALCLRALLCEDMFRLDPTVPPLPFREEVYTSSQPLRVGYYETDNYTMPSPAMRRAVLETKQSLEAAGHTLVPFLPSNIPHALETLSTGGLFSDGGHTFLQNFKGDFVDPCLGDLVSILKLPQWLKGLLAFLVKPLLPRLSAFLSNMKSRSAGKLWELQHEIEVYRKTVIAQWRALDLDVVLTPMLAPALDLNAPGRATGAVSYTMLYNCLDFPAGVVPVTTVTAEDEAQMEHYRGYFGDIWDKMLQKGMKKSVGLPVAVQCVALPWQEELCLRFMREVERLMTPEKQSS
Assay: FAAH substrate evaluation (formation of acid metabolite, LC-MS/MS)
Assay type: in vitro ADME
Conditions: 0.5 ng/μL rhFAAH, 1 μM test compound, pH 8.0, room temperature, 0-60 minutes
Description: Purified recombinant human FAAH (rhFAAH) was purchased from Cayman Chemical (Ann Arbor, Mich., USA). The total volume for each incubation was 400 μL containing a final 0.5 ng/μL rhFAAH, 1 μM test compound, 1.25% ethanol or 1 μM PF-3845 (FAAH inhibitor), and 0.1% bovine serum albumin in Tris-EDTA buffer at pH 8.0). The positive control was LL-341001. The incubation was conducted at the room temperature. At 0, 5, 15, 30 and 60 minutes, an aliquot of 30 μL reaction mixtures was removed and mixed with 300 μL acetonitrile containing 5 ng/mL terfenadine and 10 ng/mL tolbutamide as internal standards to quench the reaction. The resulting mixture was centrifuged at 4000 rpm, 4° C. for 15 minutes, and 100 μL supernatant was ready for LC-MS/MS analysis to measure the formation of acid metabolite.
Acquity Ultra Performance LC system from Waters was used for sample analysis. The chromatography was performed on a reverse phase Kinetex 2.6 μm C18 column, 2.1×30 mm, 100 Å. The mobile phase A comprised of 0.10% formic acid in water and mobile phase B comprised of 0.1% formic acid in acetonitrile with a 2-min run time at the flow rate of 0.8 mL/min for the acid metabolite from positive control or a 1.5 min run time at the flow rate of 0.9 mL/min for the acid metabolite of test compounds. The mass spectrometer (API-5500 and API Q Trap 4000 Applied Biosystems/MDS SCIEX Instruments, Framingham, Mass., USA) was operated under ESI positive or negative ion MRM mode.
The formation of acid metabolite was monitored and quantified using one calibration point of 1 μM. The observed rate constant (ke) for the acid metabolite formation was calculated by plotting the metabolite concentration versus time of incubation with the slope being ke and is shown in Table 4.

SMILES | ke, observed rate constant for the acid metabolite formation
CNC(=O)COc1cc(C)c(Cc2ccc(O)c(C(C)C)c2F)c2c1CCC2 [Compound 11, 2-((7-(2-fluoro-4-hydroxy-3-isopropylbenzyl)-6-methyl-2,3-dihydro-1H-inden-4-yl)oxy)-N-methylacetamide] | A (A = ke is less than 2.0 and more than or equal to 0.05)
CNC(=O)COc1cc(Cl)c(Cc2ccc(O)c(C(C)C)c2F)cc1F [Compound 39, 2-(5-chloro-2-fluoro-4-(2-fluoro-4-hydroxy-3-isopropylbenzyl)phenoxy)-N-methylacetamide] | A (A = ke is less than 2.0 and more than or equal to 0.05)
C=C(C)c1cc(OCC(=O)NC)ccc1Cc1ccc(O)c(C(C)C)c1F [Compound 41, 2-(4-(2-fluoro-4-hydroxy-3-isopropylbenzyl)-3-(prop-1-en-2-yl)phenoxy)-N-methylacetamide] | A (A = ke is less than 2.0 and more than or equal to 0.05)
CNC(=O)COc1ccc(Cc2ccc(O)c(C(C)C)c2F)c(C(C)C)c1 [Compound 43, 2-(4-(2-fluoro-4-hydroxy-3-isopropylbenzyl)-3-isopropylphenoxy)-N-methylacetamide] | A (A = ke is less than 2.0 and more than or equal to 0.05)
CNC(=O)COc1cc(C(C)C)c(Cc2ccc(O)c(C(C)C)c2)cc1F [Compound 47, 2-(2-fluoro-4-(4-hydroxy-3-isopropylbenzyl)-5-isopropylphenoxy)-N-methylacetamide] | A (A = ke is less than 2.0 and more than or equal to 0.05)
CC(C)c1cc(Cc2cc(F)c(OCC(=O)N(C)C)cc2C(C)C)ccc1O [Compound 48, 2-(2-fluoro-4-(4-hydroxy-3-isopropylbenzyl)-5-isopropylphenoxy)-N,N-dimethylacetamide] | A (A = ke is less than 2.0 and more than or equal to 0.05)
